Assay results: US11472771B2, “Process for making amino diaryl ethers and amino diaryl ethers hydrochloride salts” (CELLESTIA BIOTECH AG, priority 2018, dated 2022)

What was measured:
[1] = Stability study, storage 25° C., 60% rh; assay type: physicochemical
Protocol: (§1) For 6-(4-(tert-butyl)phenoxy)pyridin-3-amine monohydrochloride two different types of stability studies were performed including short-term and long-term stability studies, respectively, at 25° C. (RH, 60%), −5° C. and −20° C. for 36 months and an accelerated study at 40° C. (RH, 75%) over 6 months. In terms of analytical determinations six tests were involved including appearance, assay free base mean and purity mean, water, IR and XRPD. Appearance was determined by visual inspection. The product should be a white or off-white powder. Water content was determined according to USP <921> coulometric method. Identification of 6-(4-(tert-butyl)phenoxy)pyridin-3-amine monohydrochloride by IR spectroscopy was done according to USP <197>, comparing the spectrum obtained to that of the reference standard. X-Ray powder diffraction (XRPD) was performed according to USP <941> against the reference XRPD spectrum. Purity and assay of free base was done by HPLC-UV. Two methods were used. Mobile phases in the first method were water and acetonitrile. Mobile phases in the second method were water (0.5 mL of trifluoroacetic acid was added to 1000 mL of water) and acetonitrile (0.4 mL of trifluoroacetic acid was added to 1000 mL of acetonitrile). Equipment and chromatographic conditions for identification and determination of purity and assay of the 6-(4-(tert-butyl)phenoxy)pyridin-3-amine monohydrochloride by HPLC-UV according to the first method and the second method, respectively, are shown in Tables 5 and 6. [table] [table]

[2] = Stability study, storage 5° C.; assay type: physicochemical
Protocol: as §1, with “at 25° C. (RH, 60%), −5° C. and −20° C. for 36 months and an accelerated study at 40° C. (RH, 75%) over 6 months.” left out

[3] = 6 months stability studies, 25° C., 60% rh, 3 mths
[4] = 6 months stability studies, 25° C., 60% rh, 6 mths
[5] = 6 months stability studies, 25° C., 60% rh, Release data
[6] = 36 months stability studies, 25° C. 60% rh, 6 mths
[7] = 36 months stability studies, 25° C. 60% rh, 9 mths
[8] = 36 months stability studies, 25° C. 60% rh, 12 mths
[9] = 36 months stability studies, 25° C. 60% rh, 18 mths
[10] = 36 months stability studies, 25° C. 60% rh, 24 mths
[11] = 6 months stability studies, 55° C., 3 mths
[12] = 6 months stability studies, 55° C., 6 mths
[13] = 6 months stability studies, 55° C., Release data
[14] = 36 months stability studies, 5° C., 6 mths
[15] = 36 months stability studies, 5° C., 9 mths
[16] = 36 months stability studies, 5° C., 12 mths
[17] = 36 months stability studies, 5° C., 18 mths
[18] = 36 months stability studies, 5° C., 24 mths

## CC(C)(C)c1ccc(Oc2ccc(N)cn2)cc1.Cl [6-(4-(tert-butyl)phenoxy)pyridin-3-amine monohydrochloride]
[1]; [3]
  Assay free base, mean: 88.8 % m/m
  IR, conforms to reference: complies
  Purity, mean: 99.5 % area
  Water: 0.01 % m/m
[1]; [4]
  Assay free base, mean: 87.2 % m/m
  IR, conforms to reference: complies
  Purity, mean: 98.8 % area
  Water: 0.01 % m/m
[1]; [5]
  Assay free base, mean: 87.0 % m/m
  IR, conforms to reference: complies
  Purity, mean: 99.2 % area
  Water: 0.02 % m/m
[1]; 36 months stability studies, 25° C. 60% rh, 3 mths
  Water: 0.01 % m/m
[1]; [6]
  Assay free base, mean: 88.6 % m/m
  Purity, mean: 100.0 % area
  Water: 0.01 % m/m
[1]; [7]
  Assay free base, mean: 88.0 % m/m
  Purity, mean: 100.0 % area
  Water: 0.02 % m/m
[1]; [8]
  Assay free base, mean: 86.9 % m/m
  Purity, mean: 100.0 % area
  Water: 0.02 % m/m
[1]; [9]
  Assay free base, mean: 87.7 % m/m
  Purity, mean: 100.0 % area
  Water: 0.02 % m/m
[1]; [10]
  Assay free base, mean: 87.6 % m/m
  Water: 0.02 % m/m
[1]; 36 months stability studies, 25° C. 60% rh, 24 mths, monohydrochloride
  Purity, mean: 100 % area
[1]; 36 months stability studies, 25° C. 60% rh, Release data
  Water: 0.02 % m/m
[2]; [11]
  Assay free base, mean: 87.2 % m/m
  IR, conforms to reference: complies
  Purity, mean: 99 % area
  Water: 0.02 % m/m
[2]; [12]
  Assay free base, mean: 87.6 % m/m
  IR, conforms to reference: complies
  Purity, mean: 99 % area
  Water: 0.02 % m/m
[2]; [13]
  Assay free base, mean: 89.4 % m/m
  IR, conforms to reference: complies
  Purity, mean: 100.0 % area
  Water: 0.01 % m/m
[2]; 36 months stability studies, 5° C., 3 mths
  Water: 0.02 % m/m
[2]; [14]
  Assay free base, mean: 87.5 % m/m
  Purity, mean: 100.0 % area
  Water: 0.02 % m/m
[2]; [15]
  Assay free base, mean: 89.6 % m/m
  Purity, mean: 100.0 % area
  Water: 0.03 % m/m
[2]; [16]
  Assay free base, mean: 87.3 % m/m
  Purity, mean: 100.0 % area
  Water: 0.02 % m/m
[2]; [17]
  Assay free base, mean: 87.0 % m/m
  Purity, mean: 100.0 % area
  Water: 0.01 % m/m
[2]; [18]
  Assay free base, mean: 88.3 % m/m
  Purity, mean: 100.0 % area
  Water: 0.02 % m/m
[2]; 36 months stability studies, 5° C., Release data
  Water: 0.01 % m/m
